Earlier results in patent publication US20030215513A1, “Method for releasing nanosized particles of an active substance from a diffusion-controlled pharmaceutical composition for oral use” (priority 2002, published 2003).
Read-outs that look alike come from different tables or passages of the source.

saturated concentration (at 25° C.)	saturated concentration (at 37° C.)	Structure (SMILES)
about 66%		OC[C@@H](O)[C@@H](O)[C@H](O)[C@@H](O)CO [sorbitol]
	about 17%	OC[C@@H](O)[C@@H](O)[C@H](O)[C@H](O)CO [mannitol]
